Test results from patent US9073880B2, “2-(2-phenylethenyl) 1,3-benzodiazepine derivatives useful for the treatment of cancer” (Yissum Research Development Company of the Hebrew …, priority 2010, dated 2015).

Tested on: human melanoma YUMAC cells
Test: Cell proliferation, YUMAC (Example 4)
Type: cell-based
Settings: compound in 2-hydroxypropyl-β-cyclodextrin
Description: Human ovary cancer A2780 cells lines were seeded at a density of 5000 cells/well, human melanoma A375 cells were plated at a density of 2,500 cells/well, human colon carcinoma HCT15 cells were plated at a density of 3,000 cells/well, human prostate carcinoma PC3 cells were plated at a density of 1,500 cells/well, human breast carcinoma MCF7 cells were plated at a density of 5,000 cells/well, human breast carcinoma MDA MB 468 cells were plated at a density of 6,000 cells/well, human myeloma U266, RPMI8226 and CAG cells were plated at a density of 10,000 cells/well. All cells were plated in 96-well plates in 90 μl growth medium containing 10% FCS, 100 units/ml penicillin and 100 μg/ml streptomycin. Compound 3 was added a day later in […] of 1% DMSO in DDW to obtain final concentrations of 0, 0.1, 0.3, 1, 3, and 10 μM. The final concentration of DMSO (0.1% DMSO) was kept constant in all samples. Following exposure of the cells to compound 3 for 72 hours at 37° C., adhered cells were fixed in 0.5% gluteraldehyde in medium for 10 min, washed three times with DDW, once with 0.1M sodium borate buffer pH 8.5 and stained with 1% methylene blue dissolved in 0.1M borate buffer solution for 60 min. Excess dye was washed out and cell-bound dye was eluted with 200 μl/well of 0.1M HCl. The optical density values were read at 630 nm in ELISA plate reader. Non-adhered cells were exposed to WST-1 reagent for 5 hours following 72 hours treatment with the inhibitors, and optical density values were read at 630 nm in ELISA plate reader. The data was analyzed in Microsoft Excel, using the vehicle control as 100% proliferation. The assays were performed in triplicates. The values of IC50 were derived from the dose-dependent growth curves obtained.
Cell proliferation assay was performed as described in Example 2. The following cell line were plated in 96-well plates in 90 μl growth medium containing 10% FCS, 100 units/ml penicillin and 100 μg/ml streptomycin: human ovary cancer A2780 cells (4500 cells/well), human melanoma A375 (1500 cells/well) and YUMAC (2500 cells/well) cells, human colon carcinoma HCT15 (3000 cells/well) and HCT116 (2000 cells/well) cells, human prostate carcinoma PC3 (3000 cells/well), PC3MM2 (3500 cells/well) and DU145 (300 cells/well) cells, human hepatocarcinoma HepG2 (3000 cells/well), human Ewing sarcoma SK-ES-1 (4,500 cells/well), human glioblastoma U138MG (2,000 cells/well), human breast cancer T47D (4000 cells/well) and MDA-MB-468 (6000 cells/well) cells, human small cell lung carcinoma NCI-H1975 (5000 cells/well) cells, human osteosarcoma Saos-2 (5000 cells/well) cells, human pancreatic cancer ASPC (2500 cells/well) cells, human bladder carcinoma T24P (1000 cells/well) cells, human gastric cancer NCI-N87 (5000 cells/well) cells, human lymphoma KARPAS (5,000 cells/well) cells, human leukemia K562 (5,000 cells/well) cells and human multiple myeloma MM1S (10,000 cells/well), U266 (10,000 cells/well) and CAG (5,000 cells/well). Compounds 2-5 and 7-8 were added a day later in 10 μl of 0.7% 2-hydroxypropyl-β-cyclodextrin to obtain final concentrations of 0, 0.1, 0.3, 1, 3 and 10 μM.
Compounds 2-5 and 7-8 of the present invention were tested for their inhibitory potential in cell proliferation assay. […]

SMILES	IC50 [µM]
O=c1c(O)cc2cnc(/C=C/c3cc(O)c(O)c(Br)c3)sc-2c1O [Compound 3]	0.3
O=c1c(O)cc2cnc(/C=C/c3ccc(O)c(O)c3Br)sc-2c1O [Compound 5]	0.2
